According to US10328092B2, “Methods and compositions for treatment of drug addiction” (The Royal Institution for the Advancement of Learning / …, priority 2015, dated 2019):

Assays:
[1] = tested on: adult microglial cells; experiment: TNFα mRNA in cultured adult mouse microglia; assay type: cell-based; settings: dopamine 0.1 μm, 3 hours; not significant p=0.057
Protocol: (SEQ ID NO: 1) [200 nM]; mouse TNFα reverse, […] (SEQ ID NO: 2) [200 nM]; mouse GAPDH forward, […] (SEQ ID NO: 3) [300 nM]; mouse GAPDH reverse, […] (SEQ ID NO: 4) [300 nM]; rat TNFα forward, […] (SEQ ID NO: 1) [600 nM]; rat TNFα reverse, […] (SEQ ID NO: 5) [600 nM]; rat cyclophilin forward, […] (SEQ ID NO: 6) [500 nM]; rat cyclophilin reverse, […] (SEQ ID NO: 7) [500 nM]. After 40 cycles, the Ct values were determined.
Adult male C57BL/6 mice (8-12 weeks) underwent cardiac perfusion with Hank's Balanced Salt Solution (HBSS) and whole brains were removed. Cortices and striata were dissected, cut in to small pieces and subjected to enzymatic digestion with the Neural Tissue Dissociation Kit (P) (Miltenyi Biotech, US cat no. 130-092-628), as per manufactures instructions. Tissue was homogenised and resuspended in 35% isotonic Percoll, overlayed with HBSS and spun at 400 g for 45 mins for the removal of myelin. Pure populations of microglial cells were obtained through magnetic bead cell sorting using CD11b microbeads (Miltenyi, cat no. 130-093-634). Aliquots from positive and negative bead selected fractions were removed for cell staining to assess cell purity. […] Cells were acquired using a BD FACS Canto II and analyzed using BD FACSDiva software. […]

[2] = tested on: primary rat microglia cultures; experiment: TNFα mRNA in primary rat microglia cultures; assay type: cell-based
Protocol: For tissue, total RNA from the ventral striatum was extracted and isolated by RNAqueous-4PCR total RNA isolation kit (Ambion, AM1914), according to manufacturer's instructions. For microglia and astrocyte cultures, total RNA was isolated by RNeasy kit (Qiagen, 74136). For all sample types, 0.5 μg of total RNA was used for cDNA synthesis with Quantitect Reverse Transcription Kit (Qiagen, 205313), and quantitative RT-PCR was performed with Fast SYBR-Green Master Mix (Applied Biosystems) detected by StepOne Plus RealTime PCR system (Applied Biosystems). The sequences of qPCR primers used for mRNA quantification in this study were obtained from Integrated DNA Technologies, and are as follows: mouse TNFα forward, […] (SEQ ID NO: 1) [200 nM]; mouse TNFα reverse, […] (SEQ ID NO: 2) [200 nM]; mouse GAPDH forward, […] (SEQ ID NO: 3) [300 nM]; mouse GAPDH reverse, […] (SEQ ID NO: 4) [300 nM]; rat TNFα forward, […] (SEQ ID NO: 1) [600 nM]; rat TNFα reverse, […] (SEQ ID NO: 5) [600 nM]; rat cyclophilin forward, […] (SEQ ID NO: 6) [500 nM]; rat cyclophilin reverse, […] (SEQ ID NO: 7) [500 nM]. After 40 cycles, the Ct values were determined. To normalize the samples, ΔCt between TNFα and GADPH or cyclophilin Ct values was calculated. The x-fold difference in expression between the different treatments was then determined by subtraction of the ΔCt values and termed ΔΔCt. Finally, the total change was calculated as 2-ΔΔct and the relative amount compared with control samples was deducted.
Mixed microglia-astrocyte primary cultures were prepared from the striatum of postnatal rats (day 0), essentially as described (Beattie et al., 2002). Briefly, tissue was dissociated by […], and cells were seeded in glia media (MEM containing 5% FBS, 1.5% high sucrose MEM and 0.1% glutamax) on culture flasks (Corning) coated with poly-D lysine (Sigma) and placed in a humidified incubator at 37 C with 5% CO2. Neurons were removed by mechanical disruption and the medium was changed at day 1, and every 5-7 days after. […]

[3] = tested on: primary rat astrocyte cultures; settings: dopamine 0.1 μm with ascorbic acid, 3 hours
Protocol: For tissue, total RNA from the ventral striatum was extracted and isolated by RNAqueous-4PCR total RNA isolation kit (Ambion, AM1914), according to manufacturer's instructions. For microglia and astrocyte cultures, total RNA was isolated by RNeasy kit (Qiagen, 74136). For all sample types, 0.5 μg of total RNA was used for cDNA synthesis with Quantitect Reverse Transcription Kit (Qiagen, 205313), and quantitative RT-PCR was performed with Fast SYBR-Green Master Mix (Applied Biosystems) detected by StepOne Plus RealTime PCR system (Applied Biosystems). The sequences of qPCR primers used for mRNA quantification in this study were obtained from Integrated DNA Technologies, and are as follows: mouse TNFα forward, […] (SEQ ID NO: 1) [200 nM]; mouse TNFα reverse, […] (SEQ ID NO: 2) [200 nM]; mouse GAPDH forward, […] (SEQ ID NO: 3) [300 nM]; mouse GAPDH reverse, […] (SEQ ID NO: 4) [300 nM]; rat TNFα forward, […] (SEQ ID NO: 1) [600 nM]; rat TNFα reverse, […] […] After 40 cycles, the Ct values were determined. To normalize the samples, ΔCt between TNFα and GADPH or cyclophilin Ct values was calculated. The x-fold difference in expression between the different treatments was then determined by subtraction of the ΔCt values and termed ΔΔCt. Finally, the total change was calculated as 2-ΔΔct and the relative amount compared with control samples was deducted. […]

SMILES: Cl.NCCc1ccc(O)c(O)c1 [dopamine, dopamine hydrochloride]
- TNFα mRNA, cultured adult microglia [1]: 160 % of control
- TNFα mRNA in microglia cultures [2]: significantly increased
- TNFα production in astrocytes [3]: does not alter
